In patent US20240158439A1, “INHIBITORS OF ANTIGEN PRESENTATION BY MHC CLASS II HLA-DRB1*15:01 MOLECULES WITH ENHANCED METABOLIC STABILITY” (Provid Pharmaceuticals Inc., priority 2021, published 2024):
Like-named read-outs stand apart in the source and are kept apart here. *1 amine or outer side, *2 acyl side, *3 side chain or, on linkers, in order; H or OH if unused. Where a SMILES comes first, the peptide text is derived from it. [ ]: non-standard residue; d: D form. The star is where a group is joined. Ala(indol-4-yl) = N[C@@H](Cc1cccc2[nH]ccc12)C(=O)O; Phe(3,4-Cl2) = N[C@@H](Cc1ccc(Cl)c(Cl)c1)C(=O)O; X4 = O=C([C@H](Cc1cccc2[nH]ncc12)N[*:1])[*:2]; Trp(1-Me) = Cn1cc(C[C@H](N)C(=O)O)c2ccccc21; X1 = O=C([C@H](Cc1ccc2ccccc2n1)N[*:1])[*:2]; Ala(4-thiazolyl) = N[C@@H](Cc1cscn1)C(=O)O; Dab(CONH2) = NC(=O)NCC[C@H](N)C(=O)O; Bta = N[C@@H](Cc1csc2ccccc12)C(=O)O; Gly(cPent) = N[C@H](C(=O)O)C1CCCC1; Igl = N[C@H](C(=O)O)C1Cc2ccccc2C1; Tic = O=C(O)[C@@H]1Cc2ccccc2CN1; Cit = NC(=O)NCCC[C@H](N)C(=O)O; Chg = N[C@H](C(=O)O)C1CCCCC1; NHPhenethyl = c1ccc(CCN*)cc1; Morpholide = C1CN(*)CCO1; βAla = NCCC(=O)O

Biological target: T1, HLA-DRB1*15:01 (Homo sapiens, UniProt P01903+P01911)
T1 construct: endogenous in cells; host or cells: EBV homozygous cell lines (human)
Experiment: HLA II binding assay (competitive, biotinylated reference peptide)

[1] = Table 2, DRB1*15:01 binding, unit inferred, nM, read-out: Avg IC50

SMILES	IC50 [1] [nM]	IC50 (read-out: binding IC50) [nM]	loss in binding affinity relative to PV-267 (N-methyl amide vs primary amide) [fold]
CC(C)[C@H](NC(=O)CN)C(=O)N[C@H](C(=O)N[C@@H](CCCNC(N)=O)C(=O)N1Cc2ccccc2C[C@H]1C(=O)N[C@@H](Cc1ccccc1)C(N)=O)C1CCCCC1 [PV-661] (H-GV[Chg][Cit][Tic]F-NH2)	5		
CC(=O)N[C@H](C(=O)N[C@H](C(=O)N[C@@H](CCCNC(=N)N)C(=O)N1Cc2ccccc2C[C@H]1C(=O)N[C@@H](Cc1ccc(Cl)c(Cl)c1)C(N)=O)C1CCCCC1)C(C)C [PV-593] (Ac-V[Chg]R[Tic][Phe(3,4-Cl2)]-NH2)	4.1		
CC(C)[C@H](NC(=O)CCN)C(=O)N[C@H](C(=O)N[C@@H](CCCNC(=N)N)C(=O)N1Cc2ccccc2C[C@H]1C(=O)N[C@@H](Cc1ccccc1)C(N)=O)C1CCCCC1 [PV-638] (H-[βAla]V[Chg]R[Tic]F-NH2)	2		
CNC(=O)[C@H](Cc1ccccc1)NC(=O)[C@@H]1Cc2ccccc2CN1C(=O)[C@H](CCCNC(=N)N)NC(=O)[C@@H](NC(=O)[C@@H](NC(C)=O)C(C)C)C1Cc2ccccc2C1 [PV-629] (Ac-V[Igl]R[Tic]F-NHMe)	17		
CC(=O)N[C@H](C(=O)N[C@H](C(=O)N[C@@H](CCCNC(=N)N)C(=O)N1Cc2ccccc2C[C@H]1C(=O)N[C@@H](Cc1cccc2[nH]ncc12)C(N)=O)C1CCCCC1)C(C)C [PV-676] (Ac-V[Chg]R[Tic][X4]-NH2)	3		
CC(=O)N[C@H](C(=O)N[C@H](C(=O)N[C@@H](C)C(=O)N1Cc2ccccc2C[C@H]1C(=O)N[C@@H](Cc1ccccc1)C(N)=O)C1CCCCC1)C(C)C [PV-560] (Ac-V[Chg]A[Tic]F-NH2)	43		
CC(=O)N[C@H](C(=O)N[C@H](C(=O)N[C@@H](CCCNC(=N)N)C(=O)N1Cc2ccccc2C[C@H]1C(=O)N[C@@H](Cc1cccc2[nH]ccc12)C(N)=O)C1CCCCC1)C(C)C [PV-493] (Ac-V[Chg]R[Tic][Ala(indol-4-yl)]-NH2)	1.5		
CC(=O)N[C@H](C(=O)N[C@H](C(=O)N[C@@H](CCCNC(=N)N)C(=O)N1Cc2ccccc2C[C@H]1C(=O)N[C@@H](Cc1ccccc1)C(=O)N1CCOCC1)C1CCCCC1)C(C)C [PV-630] (Ac-V[Chg]R[Tic]F-Morpholide)		33	
CC(=O)N[C@H](C(=O)N[C@H](C(=O)N[C@@H](CCCNC(=N)N)C(=O)N1Cc2ccccc2C[C@H]1C(=O)N[C@@H](Cc1c[nH]c2ccccc12)C(N)=O)C1CCCCC1)C(C)C [PV-579] (Ac-V[Chg]R[Tic]W-NH2)	1.3		
CC(=O)N[C@H](C(=O)N[C@@H](CCCNC(=N)N)C(=O)N1Cc2ccccc2C[C@H]1C(=O)N[C@@H](Cc1c[nH]c2ccccc12)C(N)=O)C1CCCCC1 [PV-507] (Ac-[Chg]R[Tic]W-NH2)	48		
CC(C)[C@H](NC(=O)CCN)C(=O)N[C@H](C(=O)N[C@@H](Cc1cscn1)C(=O)N1Cc2ccccc2C[C@H]1C(=O)N[C@@H](Cc1ccccc1)C(N)=O)C1CCCCC1 [PV-833] (H-[βAla]V[Chg][Ala(4-thiazolyl)][Tic]F-NH2)	17		
CC(=O)N[C@H](C(=O)N[C@H](C(=O)N[C@@H](CCNC(N)=O)C(=O)N1Cc2ccccc2C[C@H]1C(=O)N[C@@H](Cc1ccccc1)C(N)=O)C1CCCCC1)C(C)C [PV-642] (Ac-V[Chg][Dab(CONH2)][Tic]F-NH2)	4		
CC(=O)N[C@H](C(=O)N[C@H](C(=O)N[C@@H](CCCNC(=N)N)C(=O)N1Cc2ccccc2C[C@H]1C(=O)N[C@@H](Cc1ccccc1)C(=O)O)C1Cc2ccccc2C1)C(C)C [PV-624] (Ac-V[Igl]R[Tic]F-OH)	161		
CC(=O)N[C@H](C(=O)N[C@@H](CCCNC(=N)N)C(=O)N1Cc2ccccc2C[C@H]1C(=O)N[C@@H](Cc1csc2ccccc12)C(N)=O)C1CCCCC1 [PV-477] (Ac-[Chg]R[Tic][Bta]-NH2)	82		
CC(=O)N[C@H](C(=O)N[C@H](C(=O)N[C@@H](CCCNC(=N)N)C(=O)N1Cc2ccccc2C[C@H]1C(=O)N[C@@H](Cc1ccccc1)C(N)=O)C1CCCC1)C(C)C [PV-573] (Ac-V[Gly(cPent)]R[Tic]F-NH2)	6.7		
CNC(=O)[C@H](Cc1ccccc1)NC(=O)[C@@H]1Cc2ccccc2CN1C(=O)[C@H](CCCNC(=N)N)NC(=O)[C@@H](NC(=O)[C@@H](NC(C)=O)C(C)C)C1CCCCC1 [PV-625] (Ac-V[Chg]R[Tic]F-NHMe)		16	8
CC(=O)N[C@H](C(=O)N[C@@H](CCCNC(=N)N)C(=O)N1Cc2ccccc2C[C@H]1C(=O)N[C@@H](Cc1cn(C)c2ccccc12)C(N)=O)C1CCCCC1 [PV-508] (Ac-[Chg]R[Tic][Trp(1-Me)]-NH2)	213		
CC(=O)N[C@H](C(=O)N[C@H](C(=O)N[C@@H](CCCNC(=N)N)C(=O)N1Cc2ccccc2C[C@H]1C(=O)NCCc1ccccc1)C1CCCCC1)C(C)C [PV-708, reference compound] (Ac-V[Chg]R[Tic]-NHPhenethyl)	464		
CC(=O)N[C@H](C(=O)N[C@H](C(=O)N[C@@H](CCCNC(=N)N)C(=O)N1Cc2ccccc2C[C@H]1C(=O)N[C@@H](Cc1ccc2ccccc2n1)C(N)=O)C1CCCCC1)C(C)C [PV-617, reference compound] (Ac-V[Chg]R[Tic][X1]-NH2)	3450		
CO[C@H](C)[C@H](NC(C)=O)C(=O)N[C@H](C(=O)N[C@@H](CCCNC(=N)N)C(=O)N1Cc2ccccc2C[C@H]1C(=O)N[C@@H](Cc1ccccc1)C(N)=O)C1CCCCC1 [PV-592] (Ac-T(Me)[Chg]R[Tic]F-NH2)	4.1		
